Active and inactive are the calls of the source.
Assays:
Assay type in all cases: functional, organism-based
[1] = tested on: Mycobacterium tuberculosis; assay: Antimycobacterial activity against isoniazid, ethambutol-resistant Mycobacterium tuberculosis Strain 11J assessed as reduction in growth measured at 2.5 uM after 90 hrs by optical density-based broth culture growth assay
[2] = tested on: Mycobacterium tuberculosis; assay: Antimycobacterial activity against isoniazid, streptomycin-resistant Mycobacterium tuberculosis Strain 13E assessed as reduction in growth measured at 2.5 uM after 90 hrs by optical density-based broth culture growth assay
[3] = tested on: Mycobacterium tuberculosis; assay: Antimycobacterial activity against rifampicin, streptomycin-resistant Mycobacterium tuberculosis Strain 13B assessed as reduction in growth measured at 2.5 uM after 90 hrs by optical density-based broth culture growth assay

Measured: inhibition

CNC(=O)CCc1cc(-c2ccc(-c3ccc(C(F)(F)F)cc3)cc2)n(-c2ccc(NC(=O)c3ccc(N)cc3)cc2)n1
active: all assays above

CNC(=O)CCc1cc(-c2ccc(-c3ccc(C(F)(F)F)cc3)cc2)nn1-c1ccc(NC(=O)c2ccncc2)cc1
active: all assays above

CNC(=O)CCc1cc(-c2ccc(-c3ccc(C(F)(F)F)cc3)cc2)n(-c2ccc(NC(=O)c3ccncc3Cl)cc2)n1
active: all assays above

CNC(=O)CCc1cc(-c2ccc(-c3ccc(C(F)(F)F)cc3)cc2)n(-c2ccc(NC(=O)c3ccncc3)cc2)n1
active: all assays above

CNC(=O)CCc1cc(-c2ccc(-c3ccc(C(F)(F)F)cc3)cc2)n(-c2ccc(NC(=O)c3cn(C)cn3)cc2)n1
active: all assays above

CNC(=O)CCc1cc(-c2ccc(-c3ccc(C(F)(F)F)cc3)cc2)n(-c2ccc(NC(=O)c3ccnc(C)c3)cc2)n1
active: all assays above

— ChEMBL document CHEMBL3399952, “Design and synthesis of novel anti-tuberculosis agents from the celecoxib pharmacophore” (Bioorg Med Chem, 2015)
